Results published in PubChem BioAssay (NCI).
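Each compound was tested at five concentrations against cells in 96-well plates for 48 hours. Abbreviation: GI50, concentration required for 50% inhibition of growth. The concentration for full growth arrest is given as TGI.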

Experiments:
Test in all cases: NCI tumour cell line growth inhibition, 48 h
786-0 renal = system: 786-0 renal
A498 renal = system: A498 renal
A549 NSCLC = system: A549 NSCLC
ACHN renal = system: ACHN renal
BT-549 breast = system: BT-549 breast
CAKI-1 renal = system: CAKI-1 renal
CCRF-CEM leukemia = system: CCRF-CEM leukemia
COLO 205 colon = system: COLO 205 colon
DLD-1 colon = system: DLD-1 colon
DMS 273 small cell lung = system: DMS 273 small cell lung
DU-145 prostate = system: DU-145 prostate
EKVX NSCLC = system: EKVX NSCLC
HCC-2998 colon = system: HCC-2998 colon
HCT-116 colon = system: HCT-116 colon
HCT-15 colon = system: HCT-15 colon
HL-60(TB) leukemia = system: HL-60(TB) leukemia
HOP-18 NSCLC = system: HOP-18 NSCLC
HOP-62 NSCLC = system: HOP-62 NSCLC
HOP-92 NSCLC = system: HOP-92 NSCLC
HS 578T breast = system: HS 578T breast
HT29 colon = system: HT29 colon
IGROV1 ovarian = system: IGROV1 ovarian
K-562 leukemia = system: K-562 leukemia
KM12 colon = system: KM12 colon
KM20L2 colon = system: KM20L2 colon
LOX IMVI melanoma = system: LOX IMVI melanoma
M14 melanoma = system: M14 melanoma
M19-MEL melanoma = system: M19-MEL melanoma
MALME-3M melanoma = system: MALME-3M melanoma
MCF7 breast = system: MCF7 breast
MDA-MB-231 breast = system: MDA-MB-231 breast
MDA-MB-435 = system: MDA-MB-435
MOLT-4 leukemia = system: MOLT-4 leukemia
NCI-H226 lung = system: NCI-H226 lung
NCI-H23 lung = system: NCI-H23 lung
NCI-H460 lung = system: NCI-H460 lung
NCI-H522 lung = system: NCI-H522 lung
NCI/ADR-RES ovarian = system: NCI/ADR-RES ovarian
OVCAR-3 ovarian = system: OVCAR-3 ovarian
OVCAR-4 ovarian = system: OVCAR-4 ovarian
OVCAR-5 ovarian = system: OVCAR-5 ovarian
OVCAR-8 ovarian = system: OVCAR-8 ovarian
P388 leukemia = system: P388 leukemia
P388/ADR leukemia = system: P388/ADR leukemia
PC-3 prostate = system: PC-3 prostate
RPMI-8226 leukemia = system: RPMI-8226 leukemia
RXF 393 renal = system: RXF 393 renal
SF-268 CNS = system: SF-268 CNS
SF-295 CNS = system: SF-295 CNS
SF-539 CNS = system: SF-539 CNS
SK-MEL-2 melanoma = system: SK-MEL-2 melanoma
SK-MEL-28 melanoma = system: SK-MEL-28 melanoma
SK-MEL-5 melanoma = system: SK-MEL-5 melanoma
SK-OV-3 ovarian = system: SK-OV-3 ovarian
SN12C renal = system: SN12C renal
SN12K1 renal = system: SN12K1 renal
SNB-19 CNS = system: SNB-19 CNS
SNB-75 CNS = system: SNB-75 CNS
SNB-78 CNS = system: SNB-78 CNS
SR leukemia = system: SR leukemia
SW-620 colon = system: SW-620 colon
T-47D breast = system: T-47D breast
TK-10 renal = system: TK-10 renal
U251 CNS = system: U251 CNS
UACC-257 melanoma = system: UACC-257 melanoma
UACC-62 melanoma = system: UACC-62 melanoma
UO-31 renal = system: UO-31 renal

Question: What does the source list for `Nc1nc(Cl)nc2c1ncn2C1CC(O)C(CO)O1` (centres undefined)?
Answer: GI50 (786-0 renal): 2.45 µM; TGI (786-0 renal): > 100 µM; TGI (A498 renal): 48.2 µM; TGI (A549 NSCLC): > 100 µM; GI50 (ACHN renal): 0.562 µM; TGI (ACHN renal): > 100 µM; GI50 (BT-549 breast): 0.345 µM; TGI (BT-549 breast): > 100 µM; TGI (CAKI-1 renal): 17.3 µM; TGI (CCRF-CEM leukemia): 11.5 µM; TGI (COLO 205 colon): > 100 µM; TGI (DLD-1 colon): > 100 µM; TGI (DMS 273 small cell lung): 47.1 µM; GI50 (DU-145 prostate): 1.81 µM; TGI (DU-145 prostate): > 100 µM; TGI (EKVX NSCLC): 34.5 µM; TGI (HCC-2998 colon): > 100 µM; TGI (HCT-116 colon): > 100 µM; TGI (HCT-15 colon): > 100 µM; TGI (HL-60(TB) leukemia): 1.02 µM; TGI (HOP-18 NSCLC): > 100 µM; TGI (HOP-62 NSCLC): 6.8 µM; TGI (HOP-92 NSCLC): 24.2 µM; GI50 (HS 578T breast): > 100 µM; TGI (HS 578T breast): > 100 µM; TGI (HT29 colon): > 100 µM; TGI (IGROV1 ovarian): > 100 µM; TGI (K-562 leukemia): > 100 µM; TGI (KM12 colon): > 100 µM; TGI (KM20L2 colon): > 100 µM; TGI (LOX IMVI melanoma): 30.6 µM; GI50 (M14 melanoma): 0.186 µM; TGI (M14 melanoma): 0.509 µM; TGI (M19-MEL melanoma): > 100 µM; TGI (MALME-3M melanoma): > 100 µM; TGI (MCF7 breast): > 100 µM; GI50 (MDA-MB-231 breast): > 79.8 µM; TGI (MDA-MB-231 breast): > 100 µM; GI50 (MDA-MB-435): 0.54 µM; TGI (MDA-MB-435): > 100 µM; TGI (MOLT-4 leukemia): > 79.3 µM; TGI (NCI-H226 lung): 62.5 µM; TGI (NCI-H23 lung): 4.78 µM; TGI (NCI-H460 lung): > 100 µM; TGI (NCI-H522 lung): > 100 µM; TGI (NCI/ADR-RES ovarian): > 100 µM; TGI (OVCAR-3 ovarian): > 100 µM; TGI (OVCAR-4 ovarian): > 100 µM; TGI (OVCAR-5 ovarian): > 100 µM; TGI (OVCAR-8 ovarian): > 100 µM; TGI (P388 leukemia): 0.498 µM; TGI (P388/ADR leukemia): > 100 µM; GI50 (PC-3 prostate): > 100 µM; TGI (PC-3 prostate): > 100 µM; TGI (RPMI-8226 leukemia): > 100 µM; TGI (RXF 393 renal): > 100 µM; TGI (SF-268 CNS): > 95.7 µM; TGI (SF-295 CNS): 99.9 µM; TGI (SF-539 CNS): 76.8 µM; TGI (SK-MEL-2 melanoma): > 100 µM; TGI (SK-MEL-28 melanoma): > 100 µM; TGI (SK-MEL-5 melanoma): > 91.4 µM; TGI (SK-OV-3 ovarian): > 100 µM; TGI (SN12C renal): > 100 µM; TGI (SN12K1 renal): > 24.9 µM; TGI (SNB-19 CNS): > 100 µM; TGI (SNB-75 CNS): > 91.9 µM; TGI (SNB-78 CNS): > 100 µM; GI50 (SR leukemia): 5.66 µM; TGI (SR leukemia): > 100 µM; TGI (SW-620 colon): > 100 µM; GI50 (T-47D breast): 5.75 µM; TGI (T-47D breast): > 100 µM; GI50 (TK-10 renal): 50.2 µM; TGI (TK-10 renal): > 100 µM; TGI (U251 CNS): > 96.5 µM; TGI (UACC-257 melanoma): 40.4 µM; TGI (UACC-62 melanoma): 6.15 µM; TGI (UO-31 renal): 8.76 µM
